The numbers were not newly measured in publication PMC4306533, “Distinct Features of Cap Binding by eIF4E1b Proteins” (Journal of Molecular Biology, 2015), which cites them from elsewhere.

The IC50 is the point on the concentration scale where inhibition reaches its midpoint. A word on the Kd: it is the constant that tells how readily two partners part at equilibrium.

The structures appear in SMILES notation.

Series [1] concerns lung, breast cancer and malignant mesothelioma cells. Set-up: method as in PMID 23289910, PMID 24711125. The settings on record: with gemcitabine or pemetrexed; cited from earlier work.
For series [2], the system named is in vitro translation. Set-up: method as in PMID 10387101. The settings on record: Cai et al.; read-out: IC50 (inhibitory potency); cited from earlier work.
Series [3] has as its target eIF4E1a. Set-up: method as in PMID 19351181. The following applies: Ghosh et al.; cited from earlier work.
Series [4] concerns eIF4E1a. Set-up: method as in PMID 15317978. The following applies: cited from earlier work.
The subject of series [5] is rabbit reticulocyte lysate system (RRL). The following applies: cited from earlier work.

Take `Nc1nc2c(c(=O)[nH]1)[n+](Cc1ccccc1)cn2[C@@H]1O[C@H](COP(=O)(O)NCCc2c[nH]c3ccccc23)[C@@H](O)[C@H]1O` [4Ei-1]: the “effect on malignant phenotypes and chemosensitization” value in series [1] was “suppresses malignant phenotypes and chemosensitizes cells”. With `Nc1nc2c(c(=O)[nH]1)[n+](Cc1ccccc1)cn2[C@@H]1O[C@H](COP(=O)([O-])O)[C@@H](O)[C@H]1O` [bn^7GMP], in series [2], the IC50 is 113 µM. Besides, in series [3], the Kd was 0.8 µM and the “fold higher binding to eIF4E1a than m^7GMP” value was 10 fold. In the case of `Nc1nc2c(ncn2[C@@H]2O[C@H](COP(=O)(O)OP(=O)([O-])OP(=O)(O)OC[C@H]3O[C@@H]([n+]4cn(Cc5ccccc5)c5c(=O)[nH]c(N)nc54)[C@H](O)[C@@H]3O)[C@@H](O)[C@H]2O)c(=O)[nH]1` [bn^7GpppG], in series [4], the “cap-binding affinity to eIF4E1a versus methylated counterpart” value was “no increase in cap-binding affinity to eIF4E1a was observed”. Also, the “inhibitory potency and translational efficiency compared with m^7GpppG” value in series [5] is “higher inhibitory potency and translational efficiency”. Turning to `Nc1nc2c(ncn2[C@@H]2O[C@H](COP(=O)(O)OP(=O)(O)OP(=O)([O-])OP(=O)(O)OC[C@H]3O[C@@H]([n+]4cn(Cc5ccccc5)c5c(=O)[nH]c(N)nc54)[C@H](O)[C@@H]3O)[C@@H](O)[C@H]2O)c(=O)[nH]1` [bn^7GppppG], the “cap-binding affinity to eIF4E1a versus methylated counterpart” value in series [4] is on record as “no increase in cap-binding affinity to eIF4E1a was observed”.
